Assay results taken from patent US20230080054A1 (ILDONG PHARMACEUTICAL CO., LTD., priority 2021, published 2023).

Target: T1, human ANO6 (Homo sapiens, UniProt Q4KMQ2)
T1 construct: expressed in transfected cells
T1 sequence (Q4KMQ2 1-931 isoform Q4KMQ2-2): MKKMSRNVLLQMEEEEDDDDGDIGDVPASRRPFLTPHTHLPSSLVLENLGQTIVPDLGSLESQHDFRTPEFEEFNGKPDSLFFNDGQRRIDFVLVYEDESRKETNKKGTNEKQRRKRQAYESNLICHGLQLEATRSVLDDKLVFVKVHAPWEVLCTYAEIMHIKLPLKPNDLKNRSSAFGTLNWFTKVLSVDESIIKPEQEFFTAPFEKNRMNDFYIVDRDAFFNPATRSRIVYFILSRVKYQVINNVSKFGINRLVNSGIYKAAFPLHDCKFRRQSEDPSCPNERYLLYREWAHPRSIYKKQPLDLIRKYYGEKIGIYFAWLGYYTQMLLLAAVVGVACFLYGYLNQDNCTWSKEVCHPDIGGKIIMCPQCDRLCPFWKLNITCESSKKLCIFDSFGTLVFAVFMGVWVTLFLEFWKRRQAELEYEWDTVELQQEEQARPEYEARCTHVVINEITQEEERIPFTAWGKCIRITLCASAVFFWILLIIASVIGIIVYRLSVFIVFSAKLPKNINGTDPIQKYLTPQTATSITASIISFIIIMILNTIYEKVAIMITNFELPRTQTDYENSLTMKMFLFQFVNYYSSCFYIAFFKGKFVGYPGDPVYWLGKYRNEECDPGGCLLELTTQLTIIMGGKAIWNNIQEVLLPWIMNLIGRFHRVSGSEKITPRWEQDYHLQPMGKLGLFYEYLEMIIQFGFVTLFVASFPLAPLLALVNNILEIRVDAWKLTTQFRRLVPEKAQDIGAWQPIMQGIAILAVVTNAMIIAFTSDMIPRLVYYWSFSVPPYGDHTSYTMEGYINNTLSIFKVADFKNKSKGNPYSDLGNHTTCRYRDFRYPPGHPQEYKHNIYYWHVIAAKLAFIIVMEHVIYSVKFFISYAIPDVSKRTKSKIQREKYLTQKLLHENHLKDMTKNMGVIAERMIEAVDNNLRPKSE
Experiment: YFP quenching assay (ANO6 ion channel activity)
Format: cell-based
Conditions: test compound 1 μM, 10 μM ionomycin, read-out: Inhibition Level 1 μM
From the text: Example 3: YFP Quenching Assay
1. Materials and Instruments
Ionomycin (Alomonelab cat. #I-700), FLUOstar Omega microplate reader (BMG Labtech, Ortenberg, Germany), and MARS Data Analysis Software (BMG Labtech)
Fisher rat thyroid (FRT) cells stably expressing human ANO6 (GenBank accession no. NP_001191732.1, provided by J. H. Nam, Dongguk University College of Medicine, Korea) and halide sensor mutant YFP-H148Q/I152L/F46L) were constructed and grown in Dulbecco's modified Eagle's medium Nutrient Mixture F-12 (DMEM/F-12) supplemented 10% FBS, 100 units/mL penicillin, 500 μg/mL hygromycin B and 100 μg/mL neomycin.
Fisher rat thyroid (FRT) cells stably expressing human ANO6 and halide sensor mutant YFP (H148Q/I152L/F46L) were seeded in black walled 96 well plates and incubated in a 37° C., 5% CO2 incubator to reach about 100% cell confluency. Then, each well of the 96 well plates were washed for several times with phosphate buffered saline (PBS), and 50 μL of PBS was added to each well. Test compounds (100× in DMSO) were added to each well to be 1% v/v DMSO. After incubation for 10 minutes in 40° C., the 96 well plates were transferred to a plate reader, and YFP fluorescence changed by SCN-introduced into cells through activated ANO6 were measured by the following steps.
(1) YFP fluorescence signals were recorded in every 0.4 seconds.
(2) Basal YFP fluorescence signals were recorded for 1 second.
(3) 140 mM SCN-(50 μL) containing 10 μM ionomycin was injected to each well, and YFP fluorescence signals were recorded.
The inhibitory activity (%) of each of the test compounds was obtained by the following steps.
(1) Background signals were subtracted from recording values, and the resulting values were converted to relative percentages. The values at 0 second were set to be 100%.
(2) Differences between the values at 3.6 seconds and those of at 7.6 seconds were calculated.
(3) In each row of 96 well plate, the inhibitory activity of each of the test compounds was calculated as percentages. The inhibitory activity of a negative control group to which neither compounds nor ionomycin were treated was set to be 100%, and the inhibitory activity of a positive control group to which ionomycin was treated and compounds were not treated was set to be 0%.
(4) The assay was performed in duplicate or triplicate, and the results were averaged.

SMILES	inhibition at 1 µM [%]
Cc1ccc(CNC(=O)c2cccc(Nc3ccc(C(C)C)nn3)c2)o1 [Compound 85, N-[(5-methylfuran-2-yl)methyl]-3-{[6-(propan-2-yl)pyridazin-3-yl]amino}benzamide]	30 to 60
Cc1ccc(CNC(=O)c2cccc(Nc3ccc(C4CCCO4)nn3)c2)o1 (centres unmarked) [Compound 86, N-[(5-methylfuran-2-yl)methyl]-3-{[6-(oxolan-2-yl)pyridazin-3-yl]amino}benzamide]	< 30
Cc1ccc(CNC(=O)c2cccc(Nc3ccc(C4CCOC4)nn3)c2)o1 (centres unmarked) [Compound 87, N-[(5-methylfuran-2-yl)methyl]-3-{[6-(oxolan-3-yl)pyridazin-3-yl]amino}benzamide]	< 30
Cc1ccc(CNC(=O)c2cccc(Nc3cccc(-c4ccccc4)c3)c2)o1 [Compound 88, 3-({[1,1′-biphenyl]-3-yl}amino)-N-[(5-methylfuran-2-yl)methyl]benzamide]	< 30
Cc1ccc(CNC(=O)c2cccc(Nc3nccc(-c4ccccc4)n3)c2)o1 [Compound 89, N-[(5-methylfuran-2-yl)methyl]-3-[(4-phenylpyrimidin-2-yl)amino]benzamide]	< 30
O=C(NCCN1CCCCC1)c1cccc(Nc2ncc(-c3ccccc3)cn2)c1 [Compound 93, 3-[(5-phenylpyrimidin-2-yl)amino]-N-[2-(piperidin-1-yl)ethyl]benzamide]	< 30
O=C(NCCN1CCCC1)c1cccc(Nc2ncc(-c3ccccc3)cn2)c1 [Compound 94, 3-[(5-phenylpyrimidin-2-yl)amino]-N-[2-(pyrrolidin-1-yl)ethyl]benzamide]	< 30
CN(C)CCNC(=O)c1cccc(Nc2ncc(-c3ccccc3)cn2)c1 [Compound 95, N-[2-(dimethylamino)ethyl]-3-[(5-phenylpyrimidin-2-yl)amino]benzamide]	< 30
CCN(CC)CCNC(=O)c1cccc(Nc2ncc(-c3ccccc3)cn2)c1 [Compound 96, N-[2-(diethylamino)ethyl]-3-[(5-phenylpyrimidin-2-yl)amino]benzamide]	< 30
CN1CCN(CCNC(=O)c2cccc(Nc3ncc(-c4ccccc4)cn3)c2)CC1 [Compound 97, N-[2-(4-methylpiperazin-1-yl)ethyl]-3-[(5-phenylpyrimidin-2-yl)amino]benzamide]	< 30
Cc1ccc(CNC(=O)c2cccc(Nc3ncc(-c4cccc(C(F)(F)F)c4)cn3)c2)o1 [Compound 99, N-[(5-methylfuran-2-yl)methyl]-3-({5-[3-(trifluoromethyl)phenyl]pyrimidin-2-yl}amino)benzamide]	30 to 60
Cc1ccc(CNC(=O)c2cccc(Nc3ncc(-c4ccc(C(F)(F)F)cc4)cn3)c2)o1 [Compound 100, N-[(5-methylfuran-2-yl)methyl]-3-({5-[4-(trifluoromethyl)phenyl]pyrimidin-2-yl}amino)benzamide]	< 30
CCOC(=O)c1cccc(-c2cnc(Nc3cccc(C(=O)NCc4ccc(C)o4)c3)nc2)c1 [Compound 101, ethyl 3-{2-[(3-{[(5-methylfuran-2-yl)methyl]carbamoyl}phenyl)amino]pyrimidin-5-yl}benzoate]	< 30
CCOC(=O)c1ccc(-c2cnc(Nc3cccc(C(=O)NCc4ccc(C)o4)c3)nc2)cc1 [Compound 102, ethyl 4-{2-[(3-{[(5-methylfuran-2-yl)methyl]carbamoyl}phenyl)amino]pyrimidin-5-yl}benzoate]	< 30
Cc1ccc(CNC(=O)c2cccc(Nc3ncc(-c4ccc5c(c4)OCO5)cn3)c2)o1 [Compound 103, 3-{[5-(2H-1,3-benzodioxol-5-yl)pyrimidin-2-yl]amino}-N-[(5-methylfuran-2-yl)methyl]benzamide]	< 30
Cc1ccc(CNC(=O)c2cccc(Nc3ncc(-c4cnc5ccccc5c4)cn3)c2)o1 [Compound 104, N-[(5-methylfuran-2-yl)methyl]-3-{[5-(quinolin-3-yl)pyrimidin-2-yl]amino}benzamide]	< 30
O=C(NCCc1ccc2c(c1)OCO2)c1cccc(Nc2ncc(-c3ccccc3)cn2)c1 [Compound 106, N-[2-(2H-1,3-benzodioxol-5-yl)ethyl]-3-[(5-phenylpyrimidin-2-yl)amino]benzamide]	30 to 60
Cc1ccc(CNC(=O)c2cccc(Nc3ccc(C#N)nn3)c2)o1 [Compound 107, 3-[(6-cyanopyridazin-3-yl)amino]-N-[(5-methylfuran-2-yl)methyl]benzamide]	< 30
Cc1ccc(CNC(=O)c2cccc(Nc3ncc(-c4cccc(C(=O)O)c4)cn3)c2)o1 [Compound 108, 3-{2-[(3-{[(5-methylfuran-2-yl)methyl]carbamoyl}phenyl)amino]pyrimidin-5-yl}benzoic acid]	< 30
Cc1ccc(CNC(=O)c2cccc(Nc3ncc(-c4ccc(C(=O)O)cc4)cn3)c2)o1 [Compound 109, 4-{2-[(3-{[(5-methylfuran-2-yl)methyl]carbamoyl}phenyl)amino]pyrimidin-5-yl}benzoic acid]	< 30
Cc1ccc(CNC(=O)c2cccc(Nc3ncc(-c4cc5ccccc5o4)cn3)c2)o1 [Compound 111, 3-{[5-(1-benzofuran-2-yl)pyrimidin-2-yl]amino}-N-[(5-methylfuran-2-yl)methyl]benzamide]	< 30
O=C(NCCc1ccccc1)c1cnc(Nc2ccc(-c3ccccc3)nn2)s1 [Compound 113, N-(2-phenylethyl)-2-[(6-phenylpyridazin-3-yl)amino]-1,3-thiazole-5-carboxamide]	< 30
CN(CCNC(=O)c1cccc(Nc2ccc(-c3ccccc3)nn2)c1)Cc1ccccc1 [Compound 124]	30 to 60
Cc1ccc(-c2ccc(Nc3cccc(C(=O)NCc4ccc(C)o4)c3)nn2)cc1 [Compound A7]	< 30
O=C(NCc1ccc2c(c1)OCO2)c1cccc(Nc2ccc(-c3ccc(F)cc3)nn2)c1 [Compound A17]	30 to 60
Cc1cccc(-c2cnc(Nc3cccc(C(=O)NCc4ccc(C)o4)c3)nc2)c1 [Compound A18]	30 to 60
Cc1ccc(CNC(=O)c2cccc(Nc3ncc(-c4cccc(F)c4)cn3)c2)o1 [Compound A20]	< 30
Cc1ccc(CNC(=O)c2cccc(Nc3ccc(-c4cccc(F)c4)nn3)c2)cc1 [Compound A25]	30 to 60

Same assay, conditions: test compound 30 μM, 10 μM ionomycin, read-out: Inhibition Level 30 μM

SMILES	inhibition at 30 µM [%]
Cc1ccc(-c2ccc(Nc3cccc(C(=O)NCc4ccc(C)o4)c3)nn2)cc1 [Compound A7]	≥ 60
COc1ccc(CNC(=O)c2cccc(Nc3ccc(-c4ccc(F)cc4)nn3)c2)c(OC)c1 [Compound A9]	30 to 60
O=C(NCc1ccc2c(c1)OCO2)c1cccc(Nc2ccc(-c3ccc(F)cc3)nn2)c1 [Compound A17]	≥ 60
Cc1cccc(-c2cnc(Nc3cccc(C(=O)NCc4ccc(C)o4)c3)nc2)c1 [Compound A18]	30 to 60
Cc1ccc(CNC(=O)c2cccc(Nc3ncc(-c4ccc(F)cc4)cn3)c2)o1 [Compound A19]	30 to 60
Cc1ccc(CNC(=O)c2cccc(Nc3ncc(-c4cccc(F)c4)cn3)c2)o1 [Compound A20]	30 to 60
Cc1ccc(CNC(=O)c2cccc(Nc3ccnc(-c4cccc(F)c4)n3)c2)o1 [Compound A21]	< 30
Cc1ccc(-c2ccc(Nc3cccc(C(=O)NCc4ccc(F)cc4)c3)nn2)cc1 [Compound A23]	30 to 60
Cc1ccc(CNC(=O)c2cccc(Nc3ccc(-c4cccc(F)c4)nn3)c2)cc1 [Compound A25]	≥ 60
Cc1ccc(-c2ccc(Nc3cccc(C(=O)NCc4ccc(Cl)cc4)c3)nn2)cc1 [Compound A28]	30 to 60
